US20140018316A1, “OPHTHALMIC PHARMACEUTICAL COMPOSITION” (Hayashibara Co., Ltd., priority 2005, published 2014)

System: pig lens
Experiment: Swelling and cloudiness of extracted pig lenses soaked in test or control solutions (traumatic cataract model)
Parameters: key to degree of cloudiness in the lens (relative value): relative gray-scale density; uninjured lens in saline at start = 10
Protocol: Using an injured pig lens employed as a model for traumatic cataract, the influence of cyclic tetrasaccharide on the cloudiness in the lens was experimented as follows: A test solution was previously prepared by dissolving a cyclic tetrasaccharide crystal, penta hydrate, which had been prepared by the method in the later described Reference for Example 2, in physiological saline into a physiological saline containing 100 mM cyclic tetrasaccharide. As a positive control, a physiological saline containing 100 mM α,α-trehalose, a reagent grade specimen, commercialized by Hayashibara Biochemical Laboratories, Inc., Okayama, Japan, was used; andasanegativecontrol, physiological saline was used. Two milliliter aliquots of any one of the above three kinds of aqueous solutions were added to every two wells in respective commercialized 24-well culture plates. In one of the two wells containing the same kind of solution in each plate was placed a pig lens, which had been obtained from a slaughter-house, extracted by incision within three hours after the obtention and without injuring, and washing the extracted lens with physiological saline; while in the other of the two wells was placed a pig lens, which had been prepared by the same procedure as in the above but injured with a 27-gauge injection needle (commercialized by Terumo Co., Tokyo, Japan) to form an injured line, about one millimeter in length. These lens were allowed to stand at ambient temperature and macroscopically and microscopically observed their change in the degree of cloudiness and in the shape of swelling, etc. This experiment was run in a triplicate manner, and the macroscopic and microscopic observations were done just after (0), 1 hour, 2 hours, 6 hours, and 24 hours after the lenses were placed in the wells, and then observed daily over 28 days. A similar experiment was further conducted using a physiological saline containing 75 mM, 50 mM, 20 mM, 10 mM, or 1 mM cyclic tetrasaccharide and a lens that had not been injured with the injection needle. The degree of cloudiness in each lens, observed with “STEREOMICROSCOPE SZX12”, a product name of a stereomicroscope commercialized by Olympus Co., Tokyo, Japan, was expressed by photographing a transmitted light image of each lens with “PENGUIN 150CL”, a digital camera commercialized by Pixela Co., Tokyo, Japan, capturing the transmitted image by a computer using a view finder commercialized by Olympus Co., Tokyo, Japan, and expressing numerically the degree of light and shade of the captured image as a gray-scale using “Scion Image for Windows Beta 4.0.2”, a software commercialized by Scion Co., Maryland, U.S.A., to obtain a mean density for each lens. The time course change in the degree of cloudiness in each lens placed in each solution was expressed with a relative value, regarding the degree of cloudiness, just after the lens free of injury had been placed in physiological saline, as 10. The change of cloudiness and swelling are respectively in Tables 1 and 2. In Table 1, there show only the results from time 0 hour through two days and from days 7, 14 and 28.

[1] = 1 mM in physiological saline, no injury, 28 days
[2] = 10 mM in physiological saline, no injury, 28 days
[3] = 20 mM in physiological saline, no injury, 28 days
[4] = pig lens in physiological saline

OCC1OC2OCC3O[C@H](O[C@H]4C(O)C(CO)OC(OCC5O[C@H](O[C@@H](C1O)C2O)C(O)C(O)[C@@H]5O)C4O)C(O)C(O)[C@@H]3O (stereo partly drawn) [Test solution, cyclo{→6)-α-D-glucopyranosyl-(1→3)-α-D-glucopyranosyl-(1→6)-α-D-glucopyranosyl-(1→3)-α-D-glucopyranosyl-(1→}]
degree of cloudiness in the lens (relative value) (1 mM in physiological saline, no injury, 1 hour): 11 | degree of cloudiness in the lens (relative value) (1 mM in physiological saline, no injury, 2 hours): 12 | degree of cloudiness in the lens (relative value) (1 mM in physiological saline, no injury, 6 hours): 11 | degree of cloudiness in the lens (relative value) (1 mM in physiological saline, no injury, 24 hours): 12 | degree of cloudiness in the lens (relative value) (1 mM in physiological saline, no injury, 2 days): 14 | degree of cloudiness in the lens (relative value) (1 mM in physiological saline, no injury, 7 days): 55 | degree of cloudiness in the lens (relative value) (1 mM in physiological saline, no injury, 14 days): 61 | degree of cloudiness in the lens (relative value) [1]: 85 | swelling of the lens [1]: ◯ (swelling was observed) | degree of cloudiness in the lens (relative value) (1 mM in physiological saline, no injury, time 0): 10 | degree of cloudiness in the lens (relative value) (10 mM in physiological saline, no injury, 1 hour): 12 | degree of cloudiness in the lens (relative value) (10 mM in physiological saline, no injury, 2 hours): 11 | degree of cloudiness in the lens (relative value) (10 mM in physiological saline, no injury, 6 hours): 12 | degree of cloudiness in the lens (relative value) (10 mM in physiological saline, no injury, 24 hours): 11 | degree of cloudiness in the lens (relative value) (10 mM in physiological saline, no injury, 2 days): 13 | degree of cloudiness in the lens (relative value) (10 mM in physiological saline, no injury, 7 days): 49 | degree of cloudiness in the lens (relative value) (10 mM in physiological saline, no injury, 14 days): 59 | degree of cloudiness in the lens (relative value) [2]: 87 | swelling of the lens [2]: ◯ (swelling was observed) | degree of cloudiness in the lens (relative value) (10 mM in physiological saline, no injury, time 0): 10 | degree of cloudiness in the lens (relative value) (20 mM in physiological saline, no injury, 1 hour): 11 | degree of cloudiness in the lens (relative value) (20 mM in physiological saline, no injury, 2 hours): 12 | degree of cloudiness in the lens (relative value) (20 mM in physiological saline, no injury, 6 hours): 12 | degree of cloudiness in the lens (relative value) (20 mM in physiological saline, no injury, 24 hours): 12 | degree of cloudiness in the lens (relative value) (20 mM in physiological saline, no injury, 2 days): 14 | degree of cloudiness in the lens (relative value) (20 mM in physiological saline, no injury, 7 days): 51 | degree of cloudiness in the lens (relative value) (20 mM in physiological saline, no injury, 14 days): 60 | degree of cloudiness in the lens (relative value) [3]: 71 | swelling of the lens [3]: ◯ (swelling was observed) | degree of cloudiness in the lens (relative value) (20 mM in physiological saline, no injury, time 0): 10 | cloudiness in the lens (in words) (20 mM, 10 mM or 1 mM, lenses with no injury, from seven days): cloudiness was observed throughout the lenses | swelling of the lens (in words) (20 mM, 10 mM or 1 mM, lenses with no injury, until 14 days): No swelling of the lenses was observed | degree of cloudiness in the lens (relative value) (50 mM in physiological saline, no injury, 1 hour): 11 | degree of cloudiness in the lens (relative value) (50 mM in physiological saline, no injury, 2 hours): 12 | degree of cloudiness in the lens (relative value) (50 mM in physiological saline, no injury, 6 hours): 12 | degree of cloudiness in the lens (relative value) (50 mM in physiological saline, no injury, 24 hours): 12 | degree of cloudiness in the lens (relative value) (50 mM in physiological saline, no injury, 2 days): 13 | degree of cloudiness in the lens (relative value) (50 mM in physiological saline, no injury, 7 days): 15 | degree of cloudiness in the lens (relative value) (50 mM in physiological saline, no injury, 14 days): 20 | degree of cloudiness in the lens (relative value) (50 mM in physiological saline, no injury, 28 days): 28 | degree of cloudiness in the lens (relative value) (50 mM in physiological saline, no injury, time 0): 10 | degree of cloudiness in the lens (relative value) (75 mM in physiological saline, no injury, 1 hour): 11 | degree of cloudiness in the lens (relative value) (75 mM in physiological saline, no injury, 2 hours): 12 | degree of cloudiness in the lens (relative value) (75 mM in physiological saline, no injury, 6 hours): 12 | degree of cloudiness in the lens (relative value) (75 mM in physiological saline, no injury, 24 hours): 12 | degree of cloudiness in the lens (relative value) (75 mM in physiological saline, no injury, 2 days): 12 | degree of cloudiness in the lens (relative value) (75 mM in physiological saline, no injury, 7 days): 14 | degree of cloudiness in the lens (relative value) (75 mM in physiological saline, no injury, 14 days): 21 | degree of cloudiness in the lens (relative value) (75 mM in physiological saline, no injury, 28 days): 29 | degree of cloudiness in the lens (relative value) (75 mM in physiological saline, no injury, time 0): 10 | swelling of the lens (in words) (75 mM or 50 mM, lenses with no injury, until 28 days): No swelling was observed | degree of cloudiness in the lens (relative value) (100 mM in physiological saline, injured lens, 1 hour): 10 | degree of cloudiness in the lens (relative value) (100 mM in physiological saline, injured lens, 2 hours): 10 | degree of cloudiness in the lens (relative value) (100 mM in physiological saline, injured lens, 6 hours): 12 | degree of cloudiness in the lens (relative value) (100 mM in physiological saline, injured lens, 24 hours): 12 | degree of cloudiness in the lens (relative value) (100 mM in physiological saline, injured lens, 2 days): 12 | degree of cloudiness in the lens (relative value) (100 mM in physiological saline, injured lens, time 0): 10 | degree of cloudiness in the lens (relative value) (100 mM in physiological saline, no injury, 1 hour): 13 | degree of cloudiness in the lens (relative value) (100 mM in physiological saline, no injury, 2 hours): 12 | degree of cloudiness in the lens (relative value) (100 mM in physiological saline, no injury, 6 hours): 12 | degree of cloudiness in the lens (relative value) (100 mM in physiological saline, no injury, 24 hours): 12 | degree of cloudiness in the lens (relative value) (100 mM in physiological saline, no injury, 2 days): 11 | degree of cloudiness in the lens (relative value) (100 mM in physiological saline, no injury, 7 days): 12 | degree of cloudiness in the lens (relative value) (100 mM in physiological saline, no injury, 14 days): 15 | degree of cloudiness in the lens (relative value) (100 mM in physiological saline, no injury, 28 days): 15 | degree of cloudiness in the lens (relative value) (100 mM in physiological saline, no injury, time 0): 10 | swelling of the lens (in words) (100 mM, injured lens, 2 days after initiating observation): the swelling of the lens was not observed | cloudiness in the lens (in words) (100 mM, injured lens, after 2 days): partial cloudiness only at the injured site | swelling of the lens (in words) (100 mM, lenses with no injury, on 28 days): no swelling | concentration with a satisfactory swelling-inhibitory-effect on the lens [4]: ≥ 1 mM | concentration with an action of inhibiting the swelling and cloudiness in the lens and maintaining transparency [4]: ≥ 50 mM
